Measured values published in patent publication EP0363671A2, “Use of ACE inhibitors against the formation of neo-intima after vascular infliction” (F. HOFFMANN-LA ROCHE AG, priority 1988, dated 1990).

Columns and labels:
[1] = Lowering of systolic blood pressure by the dose mixed into the feed; assay type: in vivo, Ratten, Stamm: RORO; details: average daily intake 10 mg/kg mixed into feed
Method: (§1) Die Tiere der Behandlungsgruppe erhielten 20 Tage lang soviel Cilazapril dem Futter beigemischt, dass die tägliche Cilazaprilaufnahme durchschnittlich 10 mg/kg betrug. Es handelt sich um eine Dosierung, die den systolischen Blutdruck um ca. 25% senkte. Die Kontrolltiere erhielten das gleiche Laborfutter ohne Zusatz. Die Ballonisierung der Arteria carotis communis wurde 6 Tage nach der ersten Gabe von Cilazapril durchgeführt. Die Tiere wurden mit Aetherinhalation und subcutaner Verabreichung von 200 mg/kg Hexobarbital-Na narkotisiert. Die distale linke Arteria carotis communis und das Bifurkationsgebiet von Carotis externa und interna wurden freigelegt. Der FOGARTY-Katheter (12-060-2F, Edwards Laboratories, Santa Anna, CA, USA) wurde durch die Arteria carotis externa in die Arteria carotis communis bis zum Aortenbogen eingeführt, der Ballon mit Wasser gefüllt (Füllungsvolumen ca. 0,01-0,015 ml) und gegen einen leichten Widerstand zurückgezogen. Dieses Procedere wurde zweimal wiederholt. Die Arteria carotis externa wurde ligiert und die Wunde vernäht. Die Operateure hatten keine Kenntnis, ob es sich um behandelte oder unbehandelte Tiere handelte.

[2] = tested on: Neointima in der ballonisierten Arteria carotis; test: Neointima formation after balloon catheter injury (ballooning) of the carotid artery, morphometry of cross-sections 14 days later; assay type: in vivo, Ratten, Stamm: RORO
Description: Eine Arterie wird mit Hilfe eines Ballonkatheters, der durch das Gefässlumen geschoben wird, von innen verletzt (Ballonisierung). Dabei wird die innerste Zellschicht, das Endothel, entfernt und die Muskelzellen der Media leicht geschädigt. Die Muskelzellen werden dadurch zur Proliferation und Migration in die Intima angeregt. […] Das Ausmass der Neointimabildung wird anschliessend an Querschnitten durch die Arterie mit Hilfe morphometrischer Methoden ausgemessen.
Die Tiere wurden randomisiert in eine Kontrollgruppe und in eine Behandlungsgruppe eingeteilt. Es wurden je 11 Tiere als Kontroll- bzw. behandelte Tiere eingesetzt.
as §1, with “Es handelt sich um eine Dosierung, die den systolischen Blutdruck um ca. 25% senkte.” left out
14 Tage nach der Ballonisierung wurden die Ratten mit Aether anaesthesiert und die Carotiden durch Perfusion mit Fixationsmittel (2,5% Glutaraldehyd in 0,1 M Phosphatpuffer, pH 7,4), fixiert. Hierzu wurde eine Sonde durch den linken Herzventrikel in die aufsteigende Aorta geführt (Einfluss) und eine zweite Sonde durch den rechten Ventrikel in den Vorhof geschoben (Abfluss). Das Gefässsystem wurde zunächst mit 10 ml PBS ("phosphate buffered saline"; gepufferte isotonische NaCI-Lösung) gespült und dann 15 min lang mit Fixationsmittel bei einem Druck von 90 mm Quecksilbersäule fixiert. Anschliessend wurden sowohl die linke (ballonisierte) als auch die rechte (nicht-ballonisierte) Arteria carotis (Kontrolle) herauspräpariert, von Gewebe befreit und zur weiteren Fixation in 2,5% Glutaraldehyd in 0,1 M Cacodylat-Puffer eingelegt. […] Das mittlere Segment wurde für die morphologischen Untersuchungen verwendet.
Semidünne Querschnitte (1 µm dick) wurden mit Toluidinblau und basischem Fuchsin gefärbt.
Aus diesen Messungen wurden folgende Parameter berechnet: • (6) Die mittlere Dicke der Neointima in um, berechnet als Kreisring aus der Querschnittsfläche der Neointima. Hierzu wurde der Neointimaquerschnitt in einen Kreisring transformiert, dessen äussere Begrenzung die Lamina elastica interna bildete. • (7) Die Querschnittsfläche der Neointima zur Querschnittsfläche der Media in Prozent (normalisierte Neointimafläche) • (8) Der Prozentsatz der mit Neointima bedeckten Lamina elastica interna.

[3] = versus untreated control animals, about 10 mg/kg daily in feed, 14 days after ballooning

In the case of `CCOC(=O)[C@H](CCc1ccccc1)N[C@H]1CCCN2CCC[C@@H](C(=O)O)N2C1=O` [Cilazapril], the “Senkung des systolischen Blutdrucks” value [1] is reported as “ca. 25%”, the “Mittlere Dicke der Neointima” value ([2]; calculated as circular ring from the neointima cross-sectional area, mean ± SD, n = 11, about 10 mg/kg daily in feed, 14 days after ballooning, controls 50 ± 25) is reported as 8±7 µm and the “Querschnittsfläche des Lumens” value ([2]; mean ± SD, n = 11, about 10 mg/kg daily in feed for 20 days, 14 days after ballooning, untreated controls 324 x 10^3) is reported as 468 x 10^3±114 x 10^3 µm^2. For the same compound, the “Prozentsatz von mit Neointima bedeckter Lamina elastica interna” value ([2]; mean ± SD, n = 11, about 10 mg/kg daily in feed, 14 days after ballooning, controls 93 ± 15) was 35±29%, the “Querschnittsfläche der Neointima” value ([2]; mean ± SD, n = 11, cilazapril about 10 mg/kg daily in feed for 20 days, ballooning on day 6, left carotid fixed 14 days after ballooning, untreated controls 109 x 10^3) was 20 x 10^3±18 x 10^3 µm^2 and the “Verhältnis von Querschnittsfläche der Neointima zu Querschnittsfläche der Media” value ([2]; normalised neointima area, mean ± SD, n = 11, about 10 mg/kg daily in feed, 14 days after ballooning, controls 101 ± 43) was 23±21%. For the same compound, the “Tiere mit vollständig gehemmter Neointimabildung” value ([2]; number of treated animals out of 11, about 10 mg/kg daily in feed, 14 days after ballooning) was 3 von 11, the “Hemmung (Querschnittsfläche der Neointima)” value [2, 3] was 82% and the “Hemmung (mittlere Dicke der Neointima)” value [2, 3] was 84%.
